assay: not given; conditions: not given

| Structure (SMILES) | melting point |
| --- | --- |
| CCCCCCCCCCCCCCCCc1nc(N2CCCCC2)nc(OC2CCC2)c1O [Compound 15, 4-Cyclobutoxy-2-(piperidin-1-yl)-6-hexadecylpyrimidin-5-ol] | 78 to 79 °C |
| [2H]C([2H])([2H])N(c1nc(CCCCCCCCCCCCCCCC)c(O)c(OC2CCC2)n1)C([2H])([2H])[2H] [Compound 13, 4-Cyclobutoxy-2-(N,N-dimethylamino)-6-hexadecylpyrimidin-5-ol-d6] | 72 to 73 °C |
| CCCCCCCCCCCCCCCCc1nc(N2CCC2)nc(OC)c1O [Compound 8, 2-(Azetidin-1-yl)-4-methoxy-6-hexadecylpyrimidin-5-ol] | 59 to 60 °C |
| CCCCCCCCCCCCCCCCc1nc(N2CCC2)nc(OCC)c1O [Compound 9, 2-(Azetidin-1-yl)-4-ethoxy-6-hexadecylpyrimidin-5-ol] | 79 to 80 °C |
| [2H]C(CCCCCCCCCCCCCCC)c1nc(N(C([2H])([2H])[2H])C([2H])([2H])[2H])nc(OC([2H])([2H])[2H])c1O (stereo not drawn) [Compound 2, 2-(N,N-dimethylamino-d6)-4-(1-hexadecyl-d1)-6-(methoxy-d3)-pyrimidin-5-ol] | 75 to 76 °C |
| CCCCCCCCCCCCCCCCc1nc(N2CCCC2)nc(OC2CCC2)c1O [Compound 14, 4-Cyclobutoxy-2-(pyrrolidin-1-yl)-6-hexadecylpyrimidin-5-ol] | 74 to 76 °C |
| CCCCCCCCCCCCCCCOc1nc(N2CCC2)nc(C)c1O [Compound 11, 2-(Azetidin-1-yl)-4-methyl-6-(pentadecyloxy)pyrimidin-5-ol] | 83 to 85 °C |

assay: not given; conditions: calculated value, James et al. (2005) J Biol. Chem. 280, 21295; cited from earlier work

| Structure (SMILES) | calculated octanol-water partition coefficient |
| --- | --- |
| COC1=C(OC)C(=O)C(C/C=C(\C)CC/C=C(\C)CC/C=C(\C)CC/C=C(\C)CC/C=C(\C)CC/C=C(\C)CC/C=C(\C)CC/C=C(\C)CC/C=C(\C)CCC=C(C)C)=C(C)C1=O [coenzyme Q10] | > 10^20 |

assay: Bioavailability in a mouse model (blood level after oral gavage); type: in vivo; conditions: whole blood, 100 mg/kg oral gavage in olive oil, blood sample 6 h after gavage, quantified by HPLC
Experimental: Bioavailability is an important characteristic of many therapeutic agents. Accordingly, certain compounds disclosed herein were tested for bioavailability in a mouse model.
The test compound was prepared on the day of dose administration by dissolving the appropriate amount of test article in olive oil to reach the proper concentrations.
The dose of 100 mg/kg body weight (total volume of administration was <120 μL) was used for testing. For example, a mouse whose body weight is 20 g would need 2 mg of test article in oral gavage. Mice were food deprived overnight. On the experimental day, mice were weighed to obtain dosage information before oral gavage was performed. Blood and brain samples were collected at the desired post-dose time points after oral gavage. Brain samples were perfused to exclude blood as a factor in the analysis of bioavailability.

| Structure (SMILES) | concentration at 6 h |
| --- | --- |
| CCCCCCCCCCCCCCCCc1nc(N2CCC2)nc(OC2CCC2)c1O [Compound 12, 2-(Azetidin-1-yl)-4-cyclobutanoxy-6-hexadecylpyrimidin-5-ol] | ~4 µM |
